Laboratory results reported in the NIST ThermoML archive (doi:10.1021/je900293j).
Numbers after ± are expanded uncertainties.

Conditions: Transpiration method

Structure (SMILES)	vapor or sublimation pressure (283.15 K, Crystal) [kPa]	vapor or sublimation pressure (293.15 K, Crystal) [kPa]	vapor or sublimation pressure (303.15 K, Crystal) [kPa]	vapor or sublimation pressure (313.15 K, Crystal) [kPa]	vapor or sublimation pressure (283.15 K, Liquid) [kPa]	vapor or sublimation pressure (293.15 K, Liquid) [kPa]	vapor or sublimation pressure (303.15 K, Liquid) [kPa]	vapor or sublimation pressure (313.15 K, Liquid) [kPa]
Cc1ccc([N+](=O)[O-])cc1 [1-methyl-4-nitrobenzene]	0.00125 ± 0.00018	0.00379 ± 0.00055	0.0102 ± 0.0015	0.0264 ± 0.0038				
Cc1ccccc1[N+](=O)[O-] [2-nitrotoluene]					0.00553 ± 0.0008	0.0127 ± 0.0018	0.0297 ± 0.0043	0.0611 ± 0.0088
Cc1cccc([N+](=O)[O-])c1 [3-nitrotoluene]	0.00339 ± 0.00049					0.00855 ± 0.0012	0.0195 ± 0.0028	0.0378 ± 0.0055
CCCCCCCCCCCCCC [tetradecane]					0.000427 ± 1.7e-05	0.00121 ± 5e-05	0.00322 ± 0.00013	0.0081 ± 0.00031
